Measured values: patent publication US20130316963A1, “INNATE DEFENCE REGULATORY PEPTIDE COMPOSITIONS FOR TREATMENT OF ARTHRITIS” (UNIVERSITY OF MANITOBA, priority 2010, published 2013)

Columns and labels:
Assay type in all cases: cell-based
p38 MAPK = p38 MAPK activity assay (immunoprecipitation, ATF-2 Thr76 phosphorylation immunoblot) in human FLS cells; conditions: IL-1β 10 ng/ml 15 min; IDR-1002 100 μg/ml 45 min prior to or at time of stimulation; FIG. 9
Protocol: (§1) Human FLS cells (5×10^4/ml) were seeded in a total volume of 20 ml per 75 cm^2 tissue culture flask in complete DMEM media containing 10% FBS for each condition. The cells were allowed to adhere overnight. Following day the media was changed to 10 ml complete DMEM containing 1% FBS. The cells were either un-stimulated or treated with IL-1β (10 ng/ml) in the presence or absence of IDR-1002 (100 μg/ml) for 15 min. IL-1β is known to induce JNK activation, and also p38 MAPK activity, after 15 min in FLS cells. Peptide IDR-1002 (100 μg/ml) was added either 45 min prior to, or at the time of stimulation with IL-1β. Total protein concentration was evaluated for each cell lysate employing micro BCA (Thermo Scientific). Kinase activities specific to JNK and to p38-MAPK were monitored employing the JNK activity assay kit and the p38 MAPK assay kit (Abcam Inc., Calif., USA) following the manufacturer's instructions. For JNK, 50 μg of total protein per cell lysate was used for immunoprecipitation employing a JNK-specific antibody. The eluate was treated with c-Jun substrate and ATP mixture. Subsequent phosporylation of c-Jun was evaluated by probing immunoblots with anti-phospho-c-Jun (Ser73) specific antibody. […] Subsequent phosporylation of ATF-2 was evaluated by probing immunoblots with a phospho-ATF-2 (Thr76) specific antibody. […]

human FLS cells = test: IL-6 production in human FLS cells stimulated with TGF-β (ELISA); conditions: FIG. 4
Protocol: Tissue culture supernatants were harvested from human FLS cells after stimulation for 24 hr with TGF-β with and without IDR-1002. The supernatants were centrifuged at 1500×g for 7 min to obtain cell-free samples. The samples were aliquoted and stored at −20° C. until further use. Production of IL-6 in the tissue culture supernatants was monitored using Quantikine® human […] ELISA following the manufacturer's instructions. […] FLS cells stimulated with TGF-β produced more than 500 pg/ml of IL-6. […] Results shown are an average of at least three independent biological experiments performed with cells isolated from synovial tissues obtained from independent donors±standard error (*p<0.05, **p<0.01).

JNK = JNK activity assay (immunoprecipitation, c-Jun Ser73 phosphorylation immunoblot) in human FLS cells; conditions: IL-1β 10 ng/ml 15 min; IDR-1002 100 μg/ml 45 min prior to or at time of stimulation; FIG. 8
Protocol: as §1

VQRWLIVWRIRK (IDR-1002 peptide)
IL-1β-induced p38 MAPK activity and phosphorylation of ATF-2 (Thr76) (p38 MAPK): abrogated | reduction in TGF-β-induced IL-6 production (human FLS cells; TGF-β with IDR-1002, 24 hr): more than 50% | IL-6 production by IDR-1002 alone (human FLS cells; no TGF-β, 24 hr): did not stimulate production of IL-6 | IL-1β-induced JNK activity and phosphorylation of c-Jun (Ser73) (JNK): abrogated
